Measurements as given in article PMC3582025 (European journal of pharmacology, 2012).
Values joined by “and” are separate entries in the source; they are usually repeats but may differ in a detail not shown here. Equal values may be shown once. Where a name gives a salt, the structure may show the parent alone. Read-outs that look alike come from different tables or passages of the source.

Key:
SERT = SERT (Homo sapiens, UniProt P31645); assay: Radioligand binding assay
[1] = biological target: 5-HT2B serotonin receptors (Homo sapiens, UniProt P41595); assay: Radioligand binding assay; details: for Ki: 5-HT2B receptor affinity Ki
[2] = biological target: norepinephrine transporter (NET) (Homo sapiens, UniProt P23975); assay: cell-based; format: cell-based
[3] = biological target: dopamine transporter (DAT) (Homo sapiens, UniProt Q01959); assay: cell-based
[4] = biological target: serotonin transporter (SERT) (Homo sapiens, UniProt P31645); assay: cell-based; format: cell-based
DAT = DAT (Homo sapiens, UniProt Q01959); assay: Radioligand binding assay
[5] = biological target: human cloned 5-HT2B receptor (Homo sapiens, UniProt P41595); assay: 5-HT2B functional assay, intracellular Ca++ mobilization; format: cell-based; details: HEK-T cells
α2C adrenoceptors = biological target: T1, α2C adrenoceptors (Homo sapiens, UniProt P18825); assay: Radioligand binding assay; details: α2C adrenoceptor affinity Ki
T1 sequence (P18825 1-462): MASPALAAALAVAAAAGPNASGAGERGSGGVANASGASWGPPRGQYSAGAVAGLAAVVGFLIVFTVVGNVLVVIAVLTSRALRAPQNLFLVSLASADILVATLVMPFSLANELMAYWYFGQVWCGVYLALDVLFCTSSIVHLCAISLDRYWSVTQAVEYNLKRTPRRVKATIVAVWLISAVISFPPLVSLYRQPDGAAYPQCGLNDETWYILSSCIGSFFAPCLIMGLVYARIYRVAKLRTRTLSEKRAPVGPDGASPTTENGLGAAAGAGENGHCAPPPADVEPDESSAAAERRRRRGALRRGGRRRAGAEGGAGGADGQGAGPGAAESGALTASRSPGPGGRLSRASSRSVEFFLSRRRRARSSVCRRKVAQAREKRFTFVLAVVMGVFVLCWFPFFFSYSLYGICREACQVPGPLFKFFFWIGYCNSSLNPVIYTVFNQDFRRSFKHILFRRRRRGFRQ

[6] = system: serotonin uptake in rat brain synaptosomes; details: ref Martinez-Clemente et al (2011); cited from earlier work
[7] = system: dopamine uptake in rat brain synaptosomes; details: ref Martinez-Clemente et al (2011); cited from earlier work
NET = NET (Homo sapiens, UniProt P23975); assay: Radioligand binding assay
[8] = NET Ki, inhibition of transporter uptake activity
[9] = DAT Ki, inhibition of transporter uptake activity
[10] = DAT pKi (mean +/- S.E.M), inhibition of transporter uptake activity, N=3
[11] = SERT Ki, inhibition of transporter uptake activity
[12] = NET pKi (mean +/- S.E.M), inhibition of transporter uptake activity, N=3
[13] = inhibition of transporter uptake activity
[14] = SERT pKi (mean +/- S.E.M), inhibition of transporter uptake activity, N=3
[15] = inhibition of transporter uptake activity, N=3

Chain of dopamine transporter (DAT) (Q01959 whole entry): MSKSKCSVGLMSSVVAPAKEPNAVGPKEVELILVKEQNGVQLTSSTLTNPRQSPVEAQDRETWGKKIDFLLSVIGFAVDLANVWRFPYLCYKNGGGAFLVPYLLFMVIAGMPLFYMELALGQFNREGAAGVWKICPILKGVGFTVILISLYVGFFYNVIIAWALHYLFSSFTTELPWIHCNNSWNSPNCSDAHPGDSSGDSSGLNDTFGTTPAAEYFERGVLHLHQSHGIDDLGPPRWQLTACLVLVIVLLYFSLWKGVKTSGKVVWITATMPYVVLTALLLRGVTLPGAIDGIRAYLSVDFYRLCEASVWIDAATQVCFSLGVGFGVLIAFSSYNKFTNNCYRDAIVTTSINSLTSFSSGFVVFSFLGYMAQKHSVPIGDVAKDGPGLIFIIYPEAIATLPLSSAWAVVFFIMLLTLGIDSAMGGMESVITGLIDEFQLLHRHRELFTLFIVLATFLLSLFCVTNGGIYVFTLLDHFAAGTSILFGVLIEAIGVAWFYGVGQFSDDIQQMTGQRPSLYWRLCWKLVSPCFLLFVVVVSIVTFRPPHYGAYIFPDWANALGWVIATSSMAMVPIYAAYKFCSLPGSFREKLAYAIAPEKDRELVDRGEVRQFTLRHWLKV
Chain of norepinephrine transporter (NET) (P23975 whole entry): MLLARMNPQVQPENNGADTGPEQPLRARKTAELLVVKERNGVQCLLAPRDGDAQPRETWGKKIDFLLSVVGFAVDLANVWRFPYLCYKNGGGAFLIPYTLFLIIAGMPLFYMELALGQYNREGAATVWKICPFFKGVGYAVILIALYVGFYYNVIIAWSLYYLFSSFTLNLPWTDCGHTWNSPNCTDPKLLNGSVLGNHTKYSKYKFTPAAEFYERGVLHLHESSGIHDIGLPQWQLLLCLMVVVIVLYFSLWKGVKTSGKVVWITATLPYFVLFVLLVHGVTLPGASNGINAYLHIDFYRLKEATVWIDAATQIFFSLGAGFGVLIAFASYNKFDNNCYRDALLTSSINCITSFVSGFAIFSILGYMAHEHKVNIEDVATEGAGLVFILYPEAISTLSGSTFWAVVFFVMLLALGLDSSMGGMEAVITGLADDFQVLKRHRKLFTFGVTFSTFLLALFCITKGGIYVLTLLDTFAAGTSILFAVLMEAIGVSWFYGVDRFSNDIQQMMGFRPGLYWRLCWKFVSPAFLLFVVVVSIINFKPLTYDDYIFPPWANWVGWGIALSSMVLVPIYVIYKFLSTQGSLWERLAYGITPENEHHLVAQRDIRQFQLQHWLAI
Chain of serotonin transporter (SERT) (P31645 whole entry): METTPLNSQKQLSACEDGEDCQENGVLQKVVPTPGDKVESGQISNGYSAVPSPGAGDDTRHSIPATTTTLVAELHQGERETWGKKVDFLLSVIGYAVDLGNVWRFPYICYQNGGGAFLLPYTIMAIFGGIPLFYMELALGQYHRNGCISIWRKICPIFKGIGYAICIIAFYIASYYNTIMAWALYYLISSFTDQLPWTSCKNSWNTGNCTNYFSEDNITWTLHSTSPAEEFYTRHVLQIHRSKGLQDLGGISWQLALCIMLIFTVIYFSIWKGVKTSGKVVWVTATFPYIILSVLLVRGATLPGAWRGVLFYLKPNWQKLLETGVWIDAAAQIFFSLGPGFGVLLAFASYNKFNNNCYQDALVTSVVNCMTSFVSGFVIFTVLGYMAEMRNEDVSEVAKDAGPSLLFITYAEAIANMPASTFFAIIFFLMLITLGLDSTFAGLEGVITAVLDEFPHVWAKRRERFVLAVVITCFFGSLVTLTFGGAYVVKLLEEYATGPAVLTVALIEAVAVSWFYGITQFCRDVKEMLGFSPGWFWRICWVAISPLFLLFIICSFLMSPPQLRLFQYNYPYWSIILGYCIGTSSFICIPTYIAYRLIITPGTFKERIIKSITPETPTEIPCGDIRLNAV
Chain of 5-HT2B serotonin receptors (P41595 whole entry): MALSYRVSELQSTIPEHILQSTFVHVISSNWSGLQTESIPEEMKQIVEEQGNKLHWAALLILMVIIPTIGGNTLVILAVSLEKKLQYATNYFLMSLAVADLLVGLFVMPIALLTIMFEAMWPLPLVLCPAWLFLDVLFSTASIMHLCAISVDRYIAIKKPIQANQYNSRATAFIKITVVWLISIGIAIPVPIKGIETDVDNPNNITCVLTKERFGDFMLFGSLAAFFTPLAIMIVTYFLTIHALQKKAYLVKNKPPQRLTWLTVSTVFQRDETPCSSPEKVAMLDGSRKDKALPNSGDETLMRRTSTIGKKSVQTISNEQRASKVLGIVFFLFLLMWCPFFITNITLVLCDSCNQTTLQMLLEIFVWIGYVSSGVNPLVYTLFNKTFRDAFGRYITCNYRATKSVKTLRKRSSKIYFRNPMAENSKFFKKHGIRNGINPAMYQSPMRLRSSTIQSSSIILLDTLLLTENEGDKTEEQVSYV
Chain of human cloned 5-HT2B receptor (P41595 whole entry): as above
Chain of SERT (P31645 whole entry): as the sequence (P31645 whole entry) above
Chain of DAT (Q01959 whole entry): as the sequence (Q01959 whole entry) above
Chain of NET (P23975 whole entry): as the sequence (P23975 whole entry) above

SMILES: CCCC(C(=O)c1cccc2ccccc12)N1CCCC1.Cl (stereo not drawn) [1-Naphyrone, 1-naphthalen-1-yl-2-pyrrolidin-1-ylpentan-1-one hydrochloride]
- Ki (SERT): < 100 nM
- 5-HT2B receptor affinity Ki [1]: submicromolar
- NET Ki [2]: submicromolar
- Ki [2, 8]: 536 nM
- DAT Ki [3]: submicromolar
- Ki ([3]; DAT Ki): < 100 nM
- Ki [3, 9]: 48 nM
- Ki [3, 10]: 47.9 nM
- SERT Ki [4]: submicromolar
- Ki [4, 11]: 352 nM

SMILES: CC(N)Cc1ccc2occc2c1.Cl (stereo not drawn) [5-APB, 1-(benzofuran-5-yl)propan-2-amine hydrochloride]
- Ki (DAT): < 100 nM
- Ki [1]: < 100 nM and 14 nM
- Ki [2, 8]: 180 nM
- Ki [2, 12]: 468 nM
- NET Ki [2, 13]: submicromolar
- 5-HT2B agonist EC50 [5]: nanomolar
- 5-HT2B agonist activity [5]: potent full agonists
- Ki [3, 9]: 265 nM
- Ki [3, 10]: 501 nM
- DAT Ki [3, 13]: submicromolar
- Ki (α2C adrenoceptors): < 100 nM
- Ki [4, 11]: 811 nM
- Ki [4, 14]: 1660 nM
- SERT Ki [4, 13]: submicromolar

SMILES: NC1Cc2ccc(I)cc2C1 (stereo not drawn) [5-iod-2-aminoindane, 5-iodo-2,3-dihydro-1H-inden-2-amine hydrochloride]
- Ki [2, 8]: 311 nM
- Ki [2, 12]: 813 nM
- Ki [3, 9]: 1590 nM
- Ki [3, 10]: 2450 nM
- Ki [4, 11]: 879 nM
- Ki [4, 14]: 1780 nM

SMILES: CC(N)Cc1ccc2ccoc2c1.Cl (stereo not drawn) [6-APB, 1-(benzofuran-6-yl)propan-2-amine hydrochloride]
- Ki [1]: 3.7 nM
- Ki [2, 8]: 117 nM
- Ki [2, 12]: 302 nM
- 5-HT2B agonist EC50 [5]: nanomolar
- 5-HT2B agonist activity [5]: potent full agonists
- Ki [3, 9]: 150 nM
- Ki [3, 10]: 234 nM
- Ki (α2C adrenoceptors): 45 nM
- Ki [4, 11]: 2700 nM
- Ki [4, 14]: 5500 nM

SMILES: CN[C@@H](C)Cc1ccc2c(c1)OCO2 [(+)-MDMA, 3,4-methylenedioxymethamphetamine, reference compound]
- Ki ([2]; NET Ki): 398 nM
- Ki ([2]; NET pKi (mean +/- S.E.M)): 2000 nM
- Ki ([3]; DAT Ki): 897 nM
- Ki ([3]; DAT pKi (mean +/- S.E.M)): 2400 nM
- Ki ([4]; SERT Ki): 948 nM
- Ki ([4]; SERT pKi (mean +/- S.E.M)): 2750 nM

SMILES: CN[C@H](C)Cc1ccc2c(c1)OCO2 [(−)-MDMA, 3,4-methylenedioxymethamphetamine, reference compound]
- Ki ([2]; NET Ki): 704 nM
- Ki ([2]; NET pKi (mean +/- S.E.M)): 3160 nM
- Ki ([3]; DAT Ki): 2420 nM
- Ki ([3]; DAT pKi (mean +/- S.E.M)): 6170 nM
- Ki ([4]; SERT Ki): 2310 nM

SMILES: CN(C)CCC=C1c2ccccc2CCc2ccccc21 [Amitriptyline, reference compound]
- Ki ([3]; DAT Ki): 4640 nM
- Ki ([3]; DAT pKi (mean +/- S.E.M)): 9770 nM

SMILES: Cc1ccc(C(=O)C(C)NCc2ccccc2)cc1 (stereo not drawn) [Benzedrone, 2-(benzylamino)-1-(4-methylphenyl)propan-1-one hydrochloride]
- Ki [2, 8]: 1220 nM
- Ki [2, 12]: 3160 nM
- Ki [3, 9]: 1410 nM and 1490 nM
- Ki [3, 10]: 2290 nM
- Ki [4, 11]: > 10000 nM
- Ki [4, 14]: 17800 nM

SMILES: c1ccc(C(c2ccccc2)C2CCCCN2)cc1 (stereo not drawn) [Desoxypipradrol, 2-benzhydrylpiperidine hydrochloride]
- Ki [2, 8]: 213 nM
- Ki [2, 12]: 550 nM
- Ki [3, 9]: 32 nM
- Ki [3, 10]: 50.1 nM
- Ki [4, 11]: > 10000 nM
- Ki [4, 14]: 53700 nM

SMILES: CCC(C)CC(C)N (stereo not drawn) [Dimethylamylamine, 4-methylhexan-2-amine hydrochloride]
- Ki [2, 8]: 649 nM
- Ki [2, 12]: 1700 nM
- Ki [3, 9]: > 10000 nM
- Ki [3, 10]: 18200 nM
- Ki [4, 11]: > 10000 nM
- Ki [4, 14]: 178000 nM

SMILES: CNC(C)C(=O)c1ccc(C)cc1.Cl (stereo not drawn) [Mephedrone, 2-methylamino-1-(4-methylphenyl)propan-1-one hydrochloride]
- 5-HT2B receptor affinity Ki [1]: submicromolar
- Ki [2, 8]: 511 nM
- concentration inhibiting serotonin uptake [6]: submicromolar
- Ki [3, 9]: 543 nM
- Ki [3, 10]: 832 nM
- Ki [4, 11]: 4940 nM
- Ki [4, 14]: 10200 nM
- concentration inhibiting dopamine uptake [7]: submicromolar

SMILES: CNC(C)Cc1cccs1.Cl (stereo not drawn) [Methiopropamine, methyl[(1-(2-thienyl)]propan-2-amine hydrochloride]
- Ki ([2]; read-out: NET Ki, inhibition of transporter uptake activity): 313 nM
- Ki ([3]; read-out: DAT Ki, inhibition of transporter uptake activity): 577 nM
- Ki ([4]; read-out: SERT Ki, inhibition of transporter uptake activity): > 10000 nM

SMILES: CNC(C)Cc1cccs1.Cl (stereo not drawn) [Methiopropamine]
- NET pKi (mean +/- S.E.M) [2, 15]: 6.09±0.07
- DAT pKi (mean +/- S.E.M) [3, 15]: 6.05±0.07
- SERT pKi (mean +/- S.E.M) [4, 15]: 4.14±0.07

SMILES: CC(NCc1ccccc1)C(=O)c1ccc2c(c1)OCO2 (stereo not drawn) [Methylenedioxy-N-benzylcathinone, 2-(benzylamino)-1-(3,4-methylenedioxyphenyl)propan-1-one]
- Ki [2, 8]: 1630 nM
- Ki [2, 12]: 4270 nM
- Ki [3, 9]: 637 nM
- Ki [3, 10]: 977 nM
- Ki [4, 11]: > 10000 nM
- Ki [4, 14]: 29500 nM

SMILES: NC1Cc2cc3c(cc2C1)OCO3 [Methylenedioxy-aminoindane, 6,7-dihydro-5H-cyclopenta[f][1,3]benzodioxol-6-amine]
- Ki [2, 8]: 641 nM
- Ki [2, 12]: 1660 nM
- Ki [3, 9]: 4920 nM
- Ki [3, 10]: 7590 nM
- Ki ([4]; SERT Ki): > 10000 nM
- Ki ([4]; SERT pKi (mean +/- S.E.M)): 11700 nM

SMILES: Cl.NC1CCc2cc3c(cc2C1)OCO3 (stereo not drawn) [Methylenedioxy-aminotetralin, 5,6,7,8-tetrahydrobenzo[f][1,3]benzodioxol-6-amine hydrochloride]
- 5-HT2B receptor affinity Ki [1]: submicromolar
- Ki [2, 8]: 894 nM
- Ki [2, 12]: 2290 nM
- Ki [3, 9]: 4070 nM
- Ki [3, 10]: 6310 nM
- Ki [4, 11]: 1100 nM
- Ki [4, 14]: 2240 nM

SMILES: CCNC(C)C(=O)c1ccc(C)cc1 (stereo not drawn) [Methylethcathinone, 2-ethylamino-1-(4-methylphenyl)propan-1-one hydrochloride]
- Ki [2, 8]: 1670 nM
- Ki [2, 12]: 4370 nM
- Ki [3, 9]: 565 nM
- Ki [3, 10]: 832 nM
- Ki [4, 11]: 1800 nM
- Ki [4, 14]: 3720 nM

SMILES: CCCC(C(=O)c1ccc2ccccc2c1)N1CCCC1.Cl (stereo not drawn) [Naphyrone, 1-naphthalen-2-yl-2-pyrrolidin-1-ylpentan-1-one hydrochloride]
- Ki (SERT): < 100 nM
- 5-HT2B receptor affinity Ki [1]: submicromolar
- NET Ki [2]: submicromolar
- Ki ([2]; NET Ki): 200 nM
- Ki (NET): < 100 nM
- DAT Ki [3]: submicromolar
- Ki ([3]; DAT Ki): 53 nM
- Ki ([3]; DAT pKi (mean +/- S.E.M)): 52.5 nM
- SERT Ki [4]: submicromolar
- Ki ([4]; SERT Ki): 235 nM
